Data set [1] can be described thus: Pharmacokinetics of JHG components in pulmonary fibrosis (PF) model rats after intragastric administration of JHGs (plasma, Orbitrap Fusion MS). The data set is classed as in vivo, Sprague Dawley (SD) rats. To be noted: for Cmax, PF model group compared with the control group: medium dose selected for comparison; for AUCs, PF model group compared with the control group: p < 0.05; for Tmax / half-life / MRT last / Cmax / AUC(0-inf) / AUC(0-t) / MRT inf: male, rat, plasma, po; for pharmacokinetic process (versus dosage): low, medium, high doses of JHGs; for MRT last: read-out: MRT(0-t); for Cmax: intragastric JHGs; for MRT inf: read-out: MRT(0-∞). The method, boiled down:
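Fasted male SD rats, healthy or bleomycin-induced PF (5 mg/kg intratracheal, dosed at day 28), received oral JHGs at 10.8, 21.6 or 43.2 g raw drug/kg. Tail-vein plasma was taken from 0.083 to 24 h, extracted with methanol, and quantified by C18 LC–Orbitrap MS (ESI, SIM) against an internal standard.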

For data set [2] the following is noted: after oral administration; cited from earlier work.
[3] abbreviates: Sprague-Dawley, PF model rats, after administration of JHGs, read-out: Tmax of all dosages.
[4] abbreviates: PF model rats, JHGs high dose 22.81 g/kg/d.
The mark [5] stands for this setting: PF model rats, JHGs low dose 5.70 g/kg/d.
[6] abbreviates: PF model rats, JHGs medium dose 11.41 g/kg/d.
[7] abbreviates: Sprague Dawley, 5.7 g/kg/day, PF model rats, JHGs low dose 5.70 g/kg/d.
[8] abbreviates: Sprague Dawley, 5.7 g/kg/day, PF model rats, JHGs low dose 5.70 g/kg/d, read-out: Tmax.
Setting [9] is: Sprague Dawley, 5.7 g/kg/day, PF model rats, low dose 5.70 g/kg/d, n=6 (1st of 3 stacked values).
The mark [10] stands for this setting: Sprague Dawley, 11.41 g/kg/day, PF model rats, JHGs medium dose 11.41 g/kg/d.
Setting [11] is: Sprague Dawley, 11.41 g/kg/day, PF model rats, JHGs medium dose 11.41 g/kg/d, read-out: Tmax.
Setting [12] is: Sprague Dawley, 11.41 g/kg/day, PF model rats, medium dose 11.41 g/kg/d, n=6 (2nd of 3 stacked values).
[13] abbreviates: Sprague Dawley, 22.81 g/kg/day, PF model rats, JHGs high dose 22.81 g/kg/d.
The mark [14] stands for this setting: Sprague Dawley, 22.81 g/kg/day, PF model rats, JHGs high dose 22.81 g/kg/d, read-out: Tmax.
[15] abbreviates: Sprague-Dawley, 5.7 g/kg/day, PF model rats, JHGs low dose 5.70 g/kg/d.
Where [16] appears, read: Sprague-Dawley, 11.41 g/kg/day, PF model rats, JHGs medium dose 11.41 g/kg/d.
The mark [17] stands for this setting: Sprague-Dawley, 22.81 g/kg/day, PF model rats, JHGs high dose 22.81 g/kg/d.
Where [18] appears, read: Sprague-Dawley, 22.81 g/kg/day, PF model rats, high dose 22.81 g/kg/d, n=6 (3rd of 3 stacked values).

Read-outs that look alike come from different tables or passages of the source. A value given as a limit tells only on which side of the number the result lay.

Regarding `O=c1cc(-c2ccc(O)cc2)oc2cc(OC3OC(CO)C(O)C(O)C3O)cc(O)c12` (stereo not shown) [Apigenin-7-glucoside], in data set [1] (PF model vs control rats), the “Tmax, PF model group compared with the control group” value is “decreased significantly”; the “Cmax, PF model group compared with the control group” value is listed as “significantly decreased”; the “AUCs, PF model group compared with the control group” value is given as “significantly decreased”. Further, the time to peak (Tmax) in data set [1] (setting [3]) is at most 2 h.
`O=c1cc(-c2ccc(O)c(O)c2)oc2cc(O[C@@H]3O[C@H](CO)[C@@H](O)[C@H](O)[C@H]3O)cc(O)c12` [Cynaroside]: in data set [1] (PF model rats), the “Cmax and AUCs (AUC(0–t), AUC (0–∞)) compared among the analytes” value was “highest”; the “correlation between CL, AUC, t½, and dose” value is “there was a correlation”; the “pharmacokinetic process (versus dosage)” value was “linear pharmacokinetic process”. In data set [1] (PF model vs control rats), the “AUC(0–t) in the model group relative to the control group” value is given as “approximately twice as high” and the “Cmax in the model group relative to the control group” value was “approximately twice as high”.
With `COc1ccc(-c2cc(=O)c3c(OC)c(OC)c(OC)c(OC)c3o2)cc1OC` [Nobiletin], the Clearances was 1307 ± 264.2 mL/min/kg in data set [1] (setting [4]), 119 ± 11.8 mL/min/kg in data set [1] (setting [5]) and 327.5 ± 83.7 mL/min/kg in data set [1] (setting [6]). The Vss amounted to 864 ± 195.9 L in data set [1] (setting [4]), 166.86 ± 26.65 L in data set [1] (setting [5]) and 769.75 ± 168.2 L in data set [1] (setting [6]). In addition, the half-life in data set [1] (setting [7]) was 17.6 ± 1.82 h; in data set [1] (setting [10]), 31.5 ± 13.3 h; in data set [1] (setting [13]), 9.59 ± 3.39 h. Further, the MRT last is 8.86 ± 0.2 h in data set [1] (setting [7]), 9.13 ± 0.25 h in data set [1] (setting [10]) and 6.66 ± 0.35 h in data set [1] (setting [17]). Besides, the time of peak concentration (Tmax) in data set [1] (setting [8]) was 0.75 h; in data set [1] (setting [11]), 0.75 h; in data set [1] (setting [14]), 0.75 h; in data set [1] (setting [3]) it was at most 2 h. Further, the Cmax is 2.97 ± 0.67 ng/mL in data set [1] (setting [9]), 3.37 ± 0.53 ng/mL in data set [1] (setting [12]) and 3.57 ± 0.3 ng/mL in data set [1] (setting [18]). The total exposure AUC(0-inf) in data set [1] (setting [15]) was found to be 33.4 ± 4.41 ng·h/mL; in data set [1] (setting [16]), 43.1 ± 11.1 ng·h/mL; in data set [1] (setting [17]), 18 ± 3.39 ng·h/mL. For the same compound, the AUC(0-t) in data set [1] (setting [15]) was determined as 21.6 ± 3.48 ng·h/mL; in data set [1] (setting [16]) it was 20 ± 2.62 ng·h/mL; in data set [1] (setting [17]), 15.5 ± 2.99 ng·h/mL. Moreover, the MRT inf in data set [1] (setting [15]) came out at 23.2 ± 2.12 h; in data set [1] (setting [16]), 41.8 ± 18.4 h; in data set [1] (setting [17]) it was 11.1 ± 1.44 h.
`COc1ccc(C(C)=O)c(O)c1` [Paeonol]: the Clearances in data set [1] (setting [4]) worked out at 4714 ± 1513 mL/min/kg; in data set [1] (setting [5]), 1560 ± 427.7 mL/min/kg; in data set [1] (setting [6]) it was 5269.7 ± 1130 mL/min/kg. The volume of distribution (Vss) in data set [1] (setting [4]) was 12017.41 ± 3866.6 L; in data set [1] (setting [5]) it was 2980.29 ± 449.33 L; in data set [1] (setting [6]) it was 8115.77 ± 895.52 L. Also, the “Cmax, PF model group compared with the control group” value in data set [1] (PF model vs control rats) was “significantly decreased”. The “AUCs, PF model group compared with the control group” value in data set [1] (PF model vs control rats) is “significantly decreased”. The half-life is 25.5 ± 8.84 h in data set [1] (setting [7]), 19.2 ± 6.63 h in data set [1] (setting [10]) and 36.4 ± 25.6 h in data set [1] (setting [13]). Further, the MRT last was 9.14 ± 0.1 h in data set [1] (setting [7]), 9.7 ± 0.37 h in data set [1] (setting [10]) and 9.41 ± 0.4 h in data set [1] (setting [17]). The Tmax in data set [1] (setting [8]) was 0.5 h; in data set [1] (setting [11]), 0.75 h; in data set [1] (setting [14]), 3 h; in data set [1] (setting [3]), at most 2 h. Moreover, the Cmax in data set [1] (setting [9]) was 2.79 ± 0.6 ng/mL; in data set [1] (setting [12]), 3.16 ± 0.22 ng/mL; in data set [1] (setting [18]), 3.63 ± 0.33 ng/mL. For the same compound, the results for the total exposure AUC(0-inf) in data set [1] (setting [15]), in data set [1] (setting [16]) and in data set [1] (setting [17]) were 41.8 ± 12.1 ng·h/mL, 41.6 ± 9.78 ng·h/mL and 83.4 ± 34.3 ng·h/mL, respectively. Moreover, the AUC(0-t) came out at 21.8 ± 2.86 ng·h/mL in data set [1] (setting [15]), 24.5 ± 2.15 ng·h/mL in data set [1] (setting [16]) and 35 ± 1.86 ng·h/mL in data set [1] (setting [17]). Moreover, the MRT inf was 33.8 ± 11.4 h in data set [1] (setting [15]), 26.9 ± 8.95 h in data set [1] (setting [16]) and 49.6 ± 33.3 h in data set [1] (setting [17]). In addition, in data set [2], the bioavailability in vivo result is “poor”.
With `CC1=C2CC3C(CC(=O)C4CC(O)CCC43C)C2CCC12OC1CC(C)CNC1C2C` (stereo not shown) [Peimisine], the Clearances amounted to 5.83 ± 1 mL/min/kg in data set [1] (setting [4]), 2.33 ± 0.33 mL/min/kg in data set [1] (setting [5]) and 4.33 ± 0.83 mL/min/kg in data set [1] (setting [6]). Also, the values for the Vss in data set [1] (setting [4]), in data set [1] (setting [5]) and in data set [1] (setting [6]) were 4.24 ± 0.61 L, 1.62 ± 0.32 L and 2.91 ± 0.52 L, respectively. In data set [1] (PF model rats), the “pharmacokinetic process (versus dosage)” value is listed as “linear pharmacokinetic process”. Further, in data set [1] (PF model vs control rats), the “MRT(0–t), PF model group compared with the control group” value is recorded as “decreased”. In addition, the half-life is 7.2 ± 0.28 h in data set [1] (setting [7]), 8.25 ± 0.94 h in data set [1] (setting [10]) and 5.96 ± 0.23 h in data set [1] (setting [13]). The MRT last in data set [1] (setting [7]) turned out to be 7.56 ± 0.17 h; in data set [1] (setting [10]) it was 7.92 ± 0.2 h; in data set [1] (setting [17]), 9.84 ± 0.24 h. The Tmax in data set [1] (setting [8]) amounted to 1.5 h; in data set [1] (setting [11]) it was 3.67 ± 0.58 h; in data set [1] (setting [14]), 8 h. For the same compound, the values for the Cmax in data set [1] (setting [9]), in data set [1] (setting [12]) and in data set [1] (setting [18]) were 2.05 ± 0.49 ng/mL, 2.51 ± 0.55 ng/mL and 2.76 ± 0.48 ng/mL, respectively. In addition, the figures for the AUC(0-inf) in data set [1] (setting [15]), in data set [1] (setting [16]) and in data set [1] (setting [17]) were 14.6 ± 2.48 ng·h/mL, 26.8 ± 5.8 ng·h/mL and 33.1 ± 6.82 ng·h/mL, respectively. For the same compound, the AUC(0-t) in data set [1] (setting [15]) stood at 12.3 ± 2.23 ng·h/mL; in data set [1] (setting [16]), 23.4 ± 5.01 ng·h/mL; in data set [1] (setting [17]), 29.7 ± 5.82 ng·h/mL. For the same compound, the MRT inf in data set [1] (setting [15]) was found to be 11.8 ± 0.51 h; in data set [1] (setting [16]), 11.4 ± 1.05 h; in data set [1] (setting [17]), 12.2 ± 0.39 h.

The values above are taken from article PMC10534582, “A Pharmacokinetic Study of Sixteen Major Bioactive Components of Jinshui-Huanxian Granules in Pulmonary Fibrosis Model and Control Rats Using Orbitrap Fusion Mass Spectrometry” (Molecules, 2023).
